Data on four molecules can be found in US20230138327A1, “COMPOSITIONS AND METHODS CONTAINING REDUCED NICOTINAMIDE RIBOSIDE FOR PREVENTION AND TREATMENT OF PANCREATIC DISEASES AND CONDITIONS” (SOCIETE DES PRODUITS NESTLE S.A., priority 2020, published 2023).

Series [1] concerns AML12 cells. The series is described as follows: Pathway of NRH-induced NAD+ synthesis: intracellular metabolites and pathway inhibitors. In kind it is cell-based. Conditions: for Effect of adenosine kinase inhibitor on NRH-mediated NAD+ synthesis: AML12 cells, 5-IT 10 mM for 1 hour prior to NRH, NAD measured 1 hour later. On the procedure: FIG. 4. NRH leads to NAD+ biosynthesis through an adenosine kinase dependent path. AML12 cells were treated with an adenosine kinase inhibitor (5-IT; […]) for 1 hour prior to NRH treatment at the doses indicated. Then, 1 hour later, acidic extracts were obtained to measure NAD levels. All values in the figure are expressed as mean+/−SEM of 3 independent experiments. * indicates statistical difference at p<0.05 vs. the respective vehicle treated group.
(§1) Levels of NRH and other NAD-related metabolites in biological samples were obtained by using a cold liquid-liquid extraction using a mixture of methanol:water:chloroform in 5:3:5 (v/v), from which the polar phase was recovered for hydrophilic interaction ultra-high performance liquid chromatography mass spectrometry (UHPLC-MS) analysis. The UHPLC consisted of a binary pump, a cooled autosampler, and a column oven (DIONEX Ultimate 3000 UHPLC+ Focused, Thermo Scientific), connected to a triple quadrupole spectrometer (TSQ Vantage, Thermo Scientific) equipped with a heated electrospray ionisation (H-ESI) source. Of each sample, 2 μL were injected into the analytical column (2.1 mm×150 mm, 5 μm pore size, 200 Å HILICON iHILIC®-Fusion(P)), guarded by a pre-column (2.1 mm×20 mm, 200 Å HILICON iHILIC®-Fusion(P) Guard Kit) operating at 35° C. The mobile phase (10 mM ammonium acetate at pH 9, A, and acetonitrile, B) was pumped at 0.25 mL/min flow rate over a linear gradient of decreasing organic solvent (0.5-16 min, 90-25% B), followed by re-equilibration for a total run time of 30 min. The MS operated in positive mode at 3500 V with multiple reaction monitoring (MRM). The software Xcalibur v4.1.31.9 (Thermo Scientific) was used for instrument control, data acquisition and processing. Retention time and mass detection was confirmed by authentic standards.
A path in which NRH would be converted to NMNH, then to NADH and this would be finally oxidized to NAD+.
In order to understand the exact path by which NRH synthesizes NAD+, we initially evaluated whether NRH, could be transported into the cell by equilibrative nucleoside transporters (ENTs).
(§2) The action of NRH was also NAMPT-independent, based on experiments using FK866, a NAMPT inhibitor. If NRH led to NAD+ synthesis via the formation of NMNH, this hypothetical path would require the phosphorylation of NRH into NMNH. Given the essential and rate-limiting role of NRK1 in NR phosphorylation, we wondered whether the ability of NRH to boost NAD+ levels was NRK1 dependent. To answer this question, we evaluated NRH action in primary hepatocytes from either control or NRK1 knockout (NRK1KO) mice. […] Further, they rule out the possibility that NRH-induced NAD+ […] is driven by NRH oxidation into NR.
Considering the molecular structure of NRH, we reasoned that an alternative nucleoside kinase could be responsible for the phosphorylation of NRH. […] The role of AK in NRH-mediated NAD+ synthesis was confirmed using a second, structurally different, AK inhibitor, ABT-702. Metabolomic analyses further confirmed that upon inhibition of AK, the generation of NMNH, NADH and NAD+ was fully blunted, even if NRH was effectively entering the cell.
As a follow-up step, NMNAT enzymes could catalyze the transition from NMNH to NADH. […] Yet, part of the NRH action remained after gallotannin treatment when NRH was used at maximal doses.

Series [2] in a line: Stability of NRH or NR spiked in isolated mouse plasma. It is filed as in vitro ADME. The conditions noted are these: 2 h of incubation.
Text: as §1

Series [3] is described as follows: Plasma NRH, NR and NAM in mice after oral administration. The conditions noted are these: mouse, in vivo, po. In kind it is in vivo.
Text: as §1
Oral administration of NRH led to very similar results to those observed after IP administration. […] NRH was detectable in plasma 1 h after oral administration. In contrast, NR levels were undetectable at 1 h after NR administration.

Series [4] concerns mice. Put plainly: Tissue NAD+ levels in mice after intraperitoneal injection. It is filed as in vivo. The conditions noted are these: IP 500 mg/kg, after 1 h. On the procedure: (§3) The above results prompted us to test whether NRH could act as an effective NAD+ precursor in vivo. For this, we first intraperitoneally (IP) injected mice with either NR or NRH (500 mg/kg). […] Importantly, NRH was detectable in circulation after IP injection.

Series [5] concerns primary hepatocytes from control or NRK1 knockout (NRK1KO) mice. The series is described as follows: NAD+ levels in primary hepatocytes from control or NRK1 knockout mice. In kind it is cell-based. The conditions noted are these: 1 hour of treatment.
Text: as §2

Series [6] in a line: Circulating NRH, NR and NAM in mice after intraperitoneal injection. In kind it is in vivo. Conditions: mice, IP 500 mg/kg.
Text: as §1, §3

Molecules are shown by their SMILES. Where a name gives a salt, the structure may show the parent alone.

Regarding `Nc1ncnc2c1c(I)cn2[C@@H]1O[C@H](CO)[C@@H](O)[C@H]1O` [5-IT, 5-iodotubercidin], in series [1], the “Effect of adenosine kinase inhibitor on NRH-mediated NAD+ synthesis” value is reported as “fully ablated the action of NRH”. The “Formation of NR and NMN after NRH treatment under AK inhibitor” value in series [1] (metabolomic analyses) was “prevented the formation of NR and NMN”.

As for `Nc1ncnc2nc(-c3ccc(N4CCOCC4)nc3)cc(-c3cccc(Br)c3)c12` [ABT-702], the “Effect of adenosine kinase inhibitor on NRH-mediated NAD+ synthesis” value in series [1] is listed as “confirmed”.

Take `NC(=O)c1ccc[n+]([C@@H]2O[C@H](CO)[C@H](O)C2O)c1` (stereo partly drawn) [NR, 1-b-D-ribofuranosyl-3-pyridinecarboxamide salt, reference compound]: in series [2], the “Compound levels in isolated mouse plasma” value was “decayed” and the “Generation of NAM in isolated mouse plasma” value is “increase in NAM”. In series [3] (C57BL/6NTac, 1 h), the “Circulating NAM after NR treatment relative to NRH treatment” value was about 4 fold. Further, in series [3], the “Administered compound in plasma” value is listed as “undetectable” and the “Circulating NAM” value was “large increases”. In series [4], the “NAD+ levels in kidney” value is given as “increased NAD+ levels”, the “NAD+ levels in liver” value was “increased NAD+ levels” and the “NAD+ levels in muscle” value is “increased NAD+ levels”. The “NAD+ levels in NRK1KO derived primary hepatocytes” value in series [5] was “failed to increase NAD+ levels”. In series [6], the “NAM levels in circulation” value is “highly increased”. Besides, in series [1] (5 minutes after treatment), the “Intracellular detection of NRH and NMNH” value is “not”.

In the case of `O=C(OC[C@H]1O[C@@H](OC(=O)c2cc(O)c(O)c(OC(=O)c3cc(O)c(O)c(O)c3)c2)[C@H](OC(=O)c2cc(O)c(O)c(OC(=O)c3cc(O)c(O)c(O)c3)c2)[C@@H](OC(=O)c2cc(O)c(O)c(OC(=O)c3cc(O)c(O)c(O)c3)c2)[C@@H]1OC(=O)c1cc(O)c(O)c(OC(=O)c2cc(O)c(O)c(O)c2)c1)c1cc(O)c(O)c(OC(=O)c2cc(O)c(O)c(O)c2)c1` [gallotannin], the “Effect of NMNAT inhibitor on NAD+ synthesis after NRH treatment” value in series [1] (NRH at maximal doses (0.5 mM), part of NRH action remained) is reported as “largely compromised NAD+ synthesis”. Further, the “Effect of NMNAT inhibitor on NRH action” value in series [1] (NRH at submaximal doses) is reported as “totally blocked”.
